Laboratory results reported in patent US9789095B2, “Inhibitors of calcium-activated chloride channels” (The Regents of the University of California, priority 2007, dated 2017).

Legend:
[1] = test system: agonist-induced [Ca2+]i elevation; test: Cytoplasmic calcium measurement by Fura-2 fluorescence in HT-29 cells; type: cell-based, human; settings: pretreatment at high concentration prior to agonist
Method: [Ca^2+]i was measured in confluent monolayers of HT-29 cells after loading with Fura-2 (2 μM Fura-2-AM, 30 min, 37° C.). Labeled cells were mounted in a perfusion chamber on the stage of an inverted epifluorescence microscope. Cells were superfused with (in mM): 140 NaCl, 5 KCl, 1 MgCl2, 1 CaCl2, 10 D-glucose, and 10 HEPES (pH 7.4), initially without and then with ATP/carbachol. Test compounds were present in some experiments for 10 min prior to agonist addition. Fura-2 fluorescence was recorded at excitation wavelengths of 340 nm and 380 nm using standard procedures

[2] = test system: CaMKII phosphorylation; test: CaMKII phosphorylation immunoblot in HT-29 cells; type: cell-based; settings: 30 μM pretreatment, ATP/carbachol
Description: CaMKII Regulation of CaCC activation by CaMKII occurs in a cell type-dependent manner (Hartzell et al., Annu. Rev. Physiol. 67:719-58 (2005)). CaMKII has been reported to regulate calcium-activated chloride current in HT-29 and T84 cells (Worrell et al., Am. J. Physiol. 260:C877-82 (1991); Morris et al., Am. J. Physiol. 264:C977-85 (1993); Chan et al., J. Biol. Chem. 269:32464-8 (1994); Braun et al., J. Physiol. 488:37-55 (1995)). To determine whether the CaCC inhibitors interfered with ATP/carbachol-induced CaMKII activation, CaMKII phosphorylation in HT-29 cells was measured by immunoblot analysis. Calcium/calmodulin-dependent protein kinase II (CaMKII) was activated by 2 min treatment of HT-29 cells with ATP/carbachol (each 100 μM). Cells were then lysed with cell lysis buffer (20 mM Tris-HCl (pH 7.4), 1% Triton X-100, 150 mM NaCl, 2 mM EDTA, 50 mM α-glycerolphosphate, 1 mM Na3VO4, 1 mM DTT, and complete protease inhibitor mixture (Roche Applied Science)). Cell debris was removed by centrifugation, and proteins in the supernatant were resolved by SDS-PAGE and immunoblotted using standard procedures (transfer to PDVF membrane, 1 h blocking in 5% nonfat dry milk, primary/secondary antibody incubations, enhanced chemiluminescence detection). Rabbit polyclonal antibodies for anti-phospho-CaMKII (Thr286) and β-actin were purchased from Cell Signaling Technology (Danvers, Mass.).

[3] = test system: calcium-activated chloride channel (CaCC); test: YFP fluorescence plate reader iodide influx assay in HT-29 cells (ATP/carbachol); type: cell-based, human; settings: semi-quantitative
Method: Screening was performed using a customized screening system (BECKMAN COULTER, Inc., Indianapolis, Ind.) consisting of the SAGIAN Core system integrated with SAMI software, and equipped with an ORCA arm for labware transport, a 96-channel head BIOMEK FX, CO2 incubator, plate washer, bar code reader, delidding station, and two FLUOstar OPTIMA fluorescence plate readers (BMG Labtechnologies, Durham, N.C.), each equipped with syringe pumps and custom excitation/emission filters (500/544 nm; CHROMA, Brattleboro, Vt.).
HT-29 cells expressing YFP-H148Q/I152L were plated in 96-well plates at 70% confluence. Plates were incubated overnight at 37° C., 5% CO2 and then the growth medium was replaced with fresh growth medium. […] YFP fluorescence was measured 1 s before and for 30 s after addition of a PBS-iodide solution (PBS that has 100 mM chloride replaced by iodide) containing carbachol and ATP (100 μM each). Each 96-well plate contained ‘positive’ controls (DMSO vehicle without agonists or test compounds) and ‘negative’ controls (DMSO vehicle with agonists but without test compounds). In some experiments solutions included (individually or in combination): carbachol, ATP, or histamine (at 50, 100, 150 or 200 μM), calcimycin (10 μM), thapsigargin (2 μM) and CFTRinh-172 (20 μM).
Iodide influx (d[I^−]/dt at t=0) was computed from fluorescence time course data by single exponential regression, as described (Ma et al., J. Clin. Invest. 110:1651-8 (2002)). Percentage inhibition was computed as: percentage inhibition=100×(Slopenegative control−Slopetest compound)/(Slopenegative control−Slopepositive control).

[4] = test system: CaCC in T84 cells; test: Short-circuit current (chloride secretion) in T84 cell monolayers; type: cell-based, human
Method: ATP/carbachol were used to induce calcium-dependent chloride secretion in well-differentiated T84 cell monolayers. T84 cells were seeded at a density of 10^5 cm^−2 on permeable supports (Snapwell, 1.12 cm^2 surface area) and grown until confluent. Supports containing confluent cell monolayers were mounted in Snapwell diffusion chambers. Cells were bathed for a 30 min stabilization period in HCO3^−-buffered solution containing (mmol/L): 120 NaCl, 5 KCl, 1 MgCl2, 1 CaCl2, 10 D-glucose, 5 HEPES, and 25 NaHCO3 (pH 7.4), aerated with 95% O2/5% CO2 at 37° C. Monolayers were voltage-clamped at 0 mV (EVC4000 Multi-Channel V/I Clamp, World Precision Instruments), and short-circuit current (Isc) was recorded continuously with agonists/inhibitors added at specified times.

[5] = test system: calcium-activated chloride channel (CaCC); test: Whole-cell patch-clamp of calcium-dependent chloride current in HT-29 cells; type: cell-based, human; settings: for calcium-dependent chloride current reduced: 1 μM ionomycin, HT-29; for ionomycin-induced chloride currents, symmetric NMDG-Cl solutions: whole-cell, pretreatment
Method: Whole cell recordings were accomplished with HT-29 cells at room temperature. The pipette solution contained (in mM): 30 CsCl, 100 Cs-aspartate, 1 MgCl2, 0.5 EGTA, 2 Tris-ATP, and 10 HEPES (pH 7.2 with CsOH), and the bath solution contained (in mM) 140 N-methyl-D-glucamine chloride (NMDG-Cl), 1 CaCl2, 1 MgCl2, 10 glucose, and 10 HEPES (pH 7.2). In one set of studies, symmetric NMDG-Cl solutions contained 140 mM NMDG-Cl, 1 mM MgCl2, 0.5 mM EGTA, 2 mM Tris-ATP, and 10 mM HEPES, pH 7.2. Pipettes were pulled from borosilicate glass and had resistances of 3-5 MΩ after fire polishing. Seal resistances were typically between 3-10 GΩ. After establishing the whole cell configuration, CaCCs were activated by 1 μM ionomycin. Whole cell currents were elicited by applying hyperpolarizing and depolarizing voltage pulses from a holding potential of 0 mV to potentials between −120 mV and +120 mV in steps of 20 mV. Currents were filtered at 5 kHz, and digitized and analyzed using an AxoScope 10.0 system and a Digidata 1440A […] (Molecular Devices, Sunnyvale, Calif.). Mean currents were expressed as current densities (picoampere per picofarad (pA/pF)).

[6] = molecular target: T1, human wildtype CFTR (Homo sapiens, UniProt P13569); test: Iodide influx in FRT cells expressing human wildtype CFTR; type: cell-based; settings: 20 μM
T1 construct: expressed in transfected cells; host or cells: Fisher rat thyroid (FRT) cells
T1 sequence (P13569 whole entry): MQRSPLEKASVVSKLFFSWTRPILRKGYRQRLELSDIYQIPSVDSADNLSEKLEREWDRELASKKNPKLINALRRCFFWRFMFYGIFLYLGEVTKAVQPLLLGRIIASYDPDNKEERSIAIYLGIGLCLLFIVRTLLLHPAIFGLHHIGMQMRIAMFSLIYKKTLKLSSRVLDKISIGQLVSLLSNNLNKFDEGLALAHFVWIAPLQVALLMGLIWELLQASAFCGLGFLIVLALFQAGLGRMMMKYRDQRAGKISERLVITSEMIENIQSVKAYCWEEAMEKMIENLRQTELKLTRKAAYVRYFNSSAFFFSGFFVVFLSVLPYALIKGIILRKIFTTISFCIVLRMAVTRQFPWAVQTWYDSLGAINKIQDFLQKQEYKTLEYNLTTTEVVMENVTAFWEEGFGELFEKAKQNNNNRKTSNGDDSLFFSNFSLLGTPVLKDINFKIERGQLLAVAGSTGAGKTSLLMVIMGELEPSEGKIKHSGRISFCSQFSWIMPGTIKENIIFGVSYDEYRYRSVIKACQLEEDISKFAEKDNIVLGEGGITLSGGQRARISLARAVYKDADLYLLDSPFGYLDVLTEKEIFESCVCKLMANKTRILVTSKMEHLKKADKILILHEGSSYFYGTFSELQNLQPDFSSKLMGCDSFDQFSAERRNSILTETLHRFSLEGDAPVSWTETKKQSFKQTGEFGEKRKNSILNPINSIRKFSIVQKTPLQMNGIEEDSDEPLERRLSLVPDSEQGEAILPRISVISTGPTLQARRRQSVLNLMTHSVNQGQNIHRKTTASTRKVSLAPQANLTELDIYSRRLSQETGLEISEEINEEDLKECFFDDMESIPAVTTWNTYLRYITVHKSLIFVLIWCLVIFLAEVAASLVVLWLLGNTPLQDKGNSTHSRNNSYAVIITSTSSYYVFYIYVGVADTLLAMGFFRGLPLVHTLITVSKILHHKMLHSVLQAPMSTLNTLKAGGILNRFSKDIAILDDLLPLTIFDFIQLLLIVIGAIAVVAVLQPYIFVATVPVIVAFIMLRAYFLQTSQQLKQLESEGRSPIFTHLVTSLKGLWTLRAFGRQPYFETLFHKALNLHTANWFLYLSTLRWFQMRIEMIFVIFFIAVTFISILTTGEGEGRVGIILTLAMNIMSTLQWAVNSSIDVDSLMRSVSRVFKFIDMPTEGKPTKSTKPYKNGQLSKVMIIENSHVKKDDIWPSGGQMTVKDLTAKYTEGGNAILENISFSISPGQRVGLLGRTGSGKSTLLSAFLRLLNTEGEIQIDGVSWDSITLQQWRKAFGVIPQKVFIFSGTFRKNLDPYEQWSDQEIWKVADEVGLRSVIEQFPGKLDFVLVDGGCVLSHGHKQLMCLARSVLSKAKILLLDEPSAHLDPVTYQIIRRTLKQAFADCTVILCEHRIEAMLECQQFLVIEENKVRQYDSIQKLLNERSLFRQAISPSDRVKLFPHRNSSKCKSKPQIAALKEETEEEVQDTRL
Method: Cystic Fibrosis Transmembrane Conductance Regulator (CFTR) Experiments were performed to determine whether the compounds affected CFTR because CFTR is a major intestinal chloride channel and evidence exists for cross-talk between cAMP and calcium signaling in intestinal cell chloride secretion (Schultheiss et al., Eur. J. Pharmacol. 546:161-70 (2006); Takahashi et al., J. Med. Microbiol. 49:801-10 (2000); Chao et al., EMBO J. 13:1065-72 (1994)). As described (Ma et al., J. Clin. Invest. 110:1651-8 (2002)), FRT cells expressing human wildtype CFTR and YFP-H148Q/I152L, at 100% confluence, were washed 3 times with PBS, leaving 60 μL. CFTR was activated by a cocktail containing forskolin (20 μM), genistein (50 μM), and isobutylmethylxanthine (100 μM). Iodide influx as described in Example 1 was measured at 10 min after addition of test compounds by determining YFP fluorescence for 2 s before and 20 s after addition of 165 μl of PBS-iodide.

[7] = Aqueous solubility in PBS by optical absorbance of a saturated solution; type: physicochemical; settings: aqueous buffer, thermodynamic from solid
Description: The high aqueous solubility is a consequence of their polarity and negative charge at physiological pH.

2-hydroxy-5-(4-p-tolylthiazol-2-ylamino)benzoic acid [CaCCinh-B01]
ATP or carbachol-induced [Ca2+]i elevations [1]: did not significantly reduce | agonist-induced CaMKII phosphorylation [2]: did not significantly affect | % inhibition at 25 μM ([3]; class B aminothiazoles): 100% | ATP-induced short-circuit current reduced ([4]; 10 μM compound): 29±11% | ATP-induced short-circuit current reduced ([4]; 30 μM compound): 64±3% | calcium-dependent chloride current reduced ([5]; 0.1 μM compound): 11±7% | calcium-dependent chloride current reduced ([5]; 1 μM compound): 34±12% | calcium-dependent chloride current reduced ([5]; 10 μM compound): 77±4% | ionomycin-induced chloride currents, symmetric NMDG-Cl solutions [5]: reduced ionomycin-induced currents

O=C(O)c1ccc(C=C2SC(=S)N(c3cccc(C(F)(F)F)c3)C2=O)cc1 [CFTRinh-172, 3-[(3-trifluoromethyl)phenyl]-5-[(4-carboxyphenyl)methylene]-2-thioxo-4-thiazolidinone, reference compound]
CFTR inhibition (iodide influx), positive control [6]: inhibition

CC(C)(C)C1CCc2c(sc(NC(=O)c3ccco3)c2C(=O)O)C1 (centres unmarked) [CaCCinh-A01, 6-tert-butyl-2-(furan-2-carboxamido)-4,5,6,7-tetrahydrobenzo[b]thiophene-3-carboxylic acid]
ATP or carbachol-induced [Ca2+]i elevations [1]: did not significantly reduce | agonist-induced CaMKII phosphorylation [2]: did not significantly affect | % inhibition at 25 μM ([3]; class A aminothiophenes): 100% | ATP-induced short-circuit current reduced ([4]; 10 μM compound): 38±7% | ATP-induced short-circuit current reduced ([4]; 30 μM compound): 78±3% | calcium-dependent chloride current reduced ([5]; 0.1 μM compound): 38±14% | calcium-dependent chloride current reduced ([5]; 1 μM compound): 66±10% | calcium-dependent chloride current reduced ([5]; 10 μM compound): 91±1% | ionomycin-induced chloride currents, symmetric NMDG-Cl solutions [5]: reduced ionomycin-induced currents | solubility [7]: > 500 µM
